What was measured:
[1] = target: prostaglandin E receptor EP4 (Homo sapiens, UniProt P35408); assay: inhibition of 3H-PGE2 radioligand binding; type: cell-based
[2] = target: prostaglandin E receptor EP2 (Homo sapiens, UniProt P43116); assay: inhibition of 3H-PGE2 radioligand binding; type: cell-based
Chain of prostaglandin E receptor EP2 (P43116 whole entry): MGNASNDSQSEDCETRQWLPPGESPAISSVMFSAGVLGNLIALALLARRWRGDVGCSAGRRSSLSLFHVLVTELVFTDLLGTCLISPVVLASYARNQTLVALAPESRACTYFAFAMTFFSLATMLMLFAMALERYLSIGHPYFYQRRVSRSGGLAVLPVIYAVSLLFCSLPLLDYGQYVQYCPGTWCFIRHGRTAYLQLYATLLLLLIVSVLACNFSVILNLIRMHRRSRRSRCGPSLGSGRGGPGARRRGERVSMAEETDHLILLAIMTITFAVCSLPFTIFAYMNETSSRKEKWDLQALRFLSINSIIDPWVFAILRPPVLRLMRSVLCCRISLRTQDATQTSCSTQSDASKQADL

Chain of prostaglandin E receptor EP4 (P35408 whole entry): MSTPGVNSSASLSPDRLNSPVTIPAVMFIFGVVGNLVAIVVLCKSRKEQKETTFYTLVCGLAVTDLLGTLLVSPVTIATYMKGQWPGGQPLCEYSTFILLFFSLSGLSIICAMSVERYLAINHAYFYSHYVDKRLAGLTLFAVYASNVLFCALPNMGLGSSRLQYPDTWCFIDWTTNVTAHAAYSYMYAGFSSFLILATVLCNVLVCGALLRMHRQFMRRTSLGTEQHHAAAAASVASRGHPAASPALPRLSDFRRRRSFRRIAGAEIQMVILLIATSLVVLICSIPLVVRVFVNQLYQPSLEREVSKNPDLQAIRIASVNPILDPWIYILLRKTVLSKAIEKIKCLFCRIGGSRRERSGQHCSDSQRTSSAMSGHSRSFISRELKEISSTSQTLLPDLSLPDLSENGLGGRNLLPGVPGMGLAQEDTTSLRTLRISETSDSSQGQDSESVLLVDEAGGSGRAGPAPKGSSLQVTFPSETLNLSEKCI

## CO[C@@H]1[C@@H](O)[C@H](O[C@@H]2[C@@H](O)[C@H](O[C@H]3[C@H](O)[C@@H](O[C@@H]4OC[C@@H](O)[C@H](O)[C@H]4O)[C@H](O[C@H]4[C@H](OC5CC[C@]6(C)[C@H]7CCC89C(=O)O[C@@](C)(CCCC(C)C)C8[C@@H](OC(C)=O)C[C@@]9(C)C7=CC[C@H]6C5(C)C)OC[C@@H](OS(=O)(=O)O)[C@@H]4O)O[C@@H]3C)OC[C@H]2O)O[C@H](CO)[C@H]1O (some centres unmarked) [FA, Frondoside A]
[1]
  IC50: ~3.7 µM
[2]
  IC50: 16.5 µM

From publication PMC3725620 (Breast cancer research and treatment, 2011)
